Data taken from patent publication US20070128217A1 (priority 2003, published 2007).

Legend:
[1] = system: recombinant human anti-SARS-CoV antibody 03-018; type: binding; design: Binding of antibody 03-018 to linear peptides of the N protein of SARS-CoV Urbani / Binding of antibody 03-018 to looped/cyclic peptides of the N protein of SARS-CoV Urbani: unit not given here
[2] = system: rabbit serum obtained by immunizing a rabbit with the SARS-CoV strain Frankfurt 1; type: binding; design: Binding of a rabbit serum to linear peptides / Binding of a rabbit serum to looped peptides / Rabbit serum linear peptides / Rabbit serum looped peptides / Binding of a rabbit serum to linear peptides of protein N of SARS-CoV Urbani (Rabbit serum linear peptides) / Binding of a rabbit serum to looped/cyclic peptides of protein N of SARS-CoV Urbani (Rabbit serum looped peptides): unit not given here
[3] = system: control sera (pooled serum of ten healthy LUMC hospital workers; commercial negative donor pooled serum from the Dutch bloodbank); type: binding, human; design: Binding of Control serum LUMC to linear peptides / Binding of Control serum Blood-bank to linear peptides / Binding of Control serum LUMC to looped peptides / Binding of Control Serum Blood-Bank to Looped peptides / Binding of Control serum LUMC to linear peptides of the protein M of SARS-CoV Urbani / Binding of Control serum Blood-bank to linear peptides of the protein M of SARS-CoV Urbani / Binding of Control serum LUMC to looped peptides of the protein M of SARS-CoV Urbani / Binding of Control Serum Blood-Bank to Looped peptides of the protein M of SARS-CoV Urbani: unit not given here
[4] = system: antibodies in sera from SARS patients (sera 1a, 1b, 2, 6, 37, 62, London, SARS-yellow, SARS-green); type: binding, human; design: Binding of serum 6 to linear peptides of protein X1 of SARS-CoV Urbani / Binding of serum 37 to linear peptides of protein X1 of SARS-CoV Urbani / Binding of serum 6 to looped/cyclic peptide (PEPSCAN-ELISA) / Binding of serum 37 to looped/cyclic peptide (PEPSCAN-ELISA) / Binding of serum 37 to looped/cyclic peptides of protein X1 of SARS-CoV Urbani / Binding of serum 6 to linear peptides of protein X2 / Binding of serum 37 to linear peptides of protein X2 / Binding of serum 37 to looped/cyclic peptides of protein X2 of SARS-CoV Urbani / Binding of serum 6 to linear peptides of protein M of SARS-CoV Urbani / Binding of serum 37 to linear peptides of protein M of SARS-CoV Urbani / Binding of serum 6 to looped/cyclic peptides of protein M of SARS-CoV Urbani / Binding of serum 37 to looped/cyclic peptides of protein M of SARS-CoV Urbani / Binding of serum 6 to linear peptides of protein X3 of SARS-CoV Urbani / Binding of serum 37 to linear peptides of protein X3 of SARS-CoV Urbani / Binding of serum 37 to looped/cyclic peptides of protein X3 of SARS-CoV Urbani / Binding of serum 6 to linear peptides of protein X4 of SARS-CoV Urbani / Binding of serum 37 to linear peptides of protein X4 of SARS-CoV Urbani / Binding of serum 37 to looped/cyclic peptides of protein X4 of SARS-CoV Urbani / Binding of serum 6 to linear peptides of protein X5 of SARS-CoV Urbani / Binding of serum 37 to linear peptides of protein X5 of SARS-CoV Urbani / Binding of serum 37 to looped/cyclic peptides of protein X5 of SARS-CoV Urbani / Binding of serum 6 to linear peptides of protein N of SARS-CoV Urbani / Binding of serum 37 to linear peptides of protein N of SARS-CoV Urbani / Binding of serum 6 to linear peptide (PEPSCAN-ELISA) / Binding of serum 1a to looped/cyclic peptides of protein N of SARS-CoV Urbani / Binding of serum 1b to looped/cyclic peptides of protein N of SARS-CoV Urbani / Binding of serum 2 to looped/cyclic peptides of protein N of SARS-CoV Urbani / Binding of serum 6 to looped/cyclic peptides of protein N of SARS-CoV Urbani / Binding of serum 37 to looped/cyclic peptides of protein N of SARS-CoV Urbani / Binding of serum 62 to looped/cyclic peptides of protein N of SARS-CoV Urbani / Binding of serum London to looped/cyclic peptides of protein N of SARS-CoV Urbani / Binding of serum SARS-green to looped/cyclic peptides of protein N of SARS-CoV Urbani: unit not given here

| Sequence | Binding of a rabbit serum to linear peptides of protein N of SARS-CoV Urbani (Rabbit serum linear peptides) [2] | Binding of a rabbit serum to looped/cyclic peptides of protein N of SARS-CoV Urbani (Rabbit serum looped peptides) [2] | Binding of Control Serum Blood-Bank to Looped peptides [3] | Binding of Control serum Blood-bank to linear peptides [3] | Binding of Control serum LUMC to linear peptides [3] | Binding of Control serum LUMC to looped peptides [3] | Binding of serum 1a to linear peptides of protein N of SARS-CoV Urbani [4] | Binding of serum 1a to looped/cyclic peptides of protein N of SARS-CoV Urbani [4] | Binding of serum 1b to linear peptides of protein N of SARS-CoV Urbani [4] | Binding of serum 1b to looped/cyclic peptides of protein N of SARS-CoV Urbani [4] | Binding of serum 2 to linear peptides of protein N of SARS-CoV Urbani [4] | Binding of serum 2 to looped/cyclic peptides of protein N of SARS-CoV Urbani [4] | Binding of serum 6 to linear peptides of protein N of SARS-CoV Urbani [4] | Binding of serum 6 to looped/cyclic peptides of protein N of SARS-CoV Urbani [4] | Binding of serum 37 to linear peptides of protein N of SARS-CoV Urbani [4] | Binding of serum 37 to looped/cyclic peptides of protein N of SARS-CoV Urbani [4] | Binding of serum 62 to looped/cyclic peptides of protein N of SARS-CoV Urbani [4] | Binding of serum London to looped/cyclic peptides of protein N of SARS-CoV Urbani [4] | Binding of serum SARS-green to looped/cyclic peptides of protein N of SARS-CoV Urbani [4] | Binding of serum SARS-yellow to looped/cyclic peptides of protein N of SARS-CoV Urbani [4] | other results |
| --- | --- | --- | --- | --- | --- | --- | --- | --- | --- | --- | --- | --- | --- | --- | --- | --- | --- | --- | --- | --- | --- |
| QRSAPRITFGGPTDS | 0.3 | 1.2 | 0.7 | 0.6 | 0.5 | 0.7 | 0.2 | 0.4 | 0.1 | 0.3 | 0.1 | 0.4 | 0.1 | 0.4 | 0.6 | 0.7 | 0.5 | 0.9 | 0.4 | 0.6 | Recognition of the peptide by antibody 03-018 [1]: recognized; Binding of serum 62 to linear peptides of protein N of SARS-CoV Urbani [4]: 0.6; Binding of serum London to linear peptides of protein N of SARS-CoV Urbani [4]: 0.5; Binding of serum SARS-green to linear peptides of protein N of SARS-CoV Urbani [4]: 0.2; Binding of serum SARS-yellow to linear peptides of protein N of SARS-CoV Urbani [4]: 0.5 |
| QSNQRSAPRITFGGP | – | – | 0.7 | 0.6 | 0.5 | 0.9 | 0.2 | 0.5 | 0.1 | 0.3 | 0.2 | 0.6 | 0.1 | 0.4 | 0.7 | 0.8 | 0.7 | 0.5 | 0.5 | 0.7 | Recognition of the peptide by antibody 03-018 [1]: recognized; Recognition of the peptide by the rabbit serum [2]: also recognized; Binding of serum 62 to linear peptides of protein N of SARS-CoV Urbani [4]: 0.7; Binding of serum London to linear peptides of protein N of SARS-CoV Urbani [4]: 0.4; Binding of serum SARS-green to linear peptides of protein N of SARS-CoV Urbani [4]: 0.5; Binding of serum SARS-yellow to linear peptides of protein N of SARS-CoV Urbani [4]: 0.5 |
| QYNVTQAFGRRGPEQ | – | – | 0.8 | 0.7 | 0.6 | 0.8 | – | 0.4 | – | 0.2 | – | 0.4 | – | 0.4 | – | 0.7 | 0.6 | 0.5 | 0.4 | 0.5 | Binding of antibody 03-018 to linear peptides of the N protein of SARS-CoV Urbani [1]: 0.1; Binding of antibody 03-018 to looped/cyclic peptides of the N protein of SARS-CoV Urbani [1]: 0.3; Recognition of the peptide by the rabbit serum [2]: recognized; Binding of serum 1a to linear peptide (PEPSCAN-ELISA) [4]: 0.3; Binding of serum 1b to linear peptide (PEPSCAN-ELISA) [4]: 0.1; Binding of serum 2 to linear peptide (PEPSCAN-ELISA) [4]: 0.1; Binding of serum 6 to linear peptide (PEPSCAN-ELISA) [4]: 0.2; Binding of serum 37 to linear peptide (PEPSCAN-ELISA) [4]: 0.6; Binding of serum 62 to linear peptide (PEPSCAN-ELISA) [4]: 0.6; Binding of serum London to linear peptide (PEPSCAN-ELISA) [4]: 0.4; Binding of serum SARS-green to linear peptide (PEPSCAN-ELISA) [4]: 0.5; Binding of serum SARS-yellow to linear peptide (PEPSCAN-ELISA) [4]: 0.6 |
| RFPRGQGVPINTNSG | 0.1 | 0.5 | 0.6 | 0.8 | 0.6 | 0.5 | 0.2 | 0.3 | 0.1 | 0.2 | 0.3 | 0.4 | 0.1 | 0.2 | 0.7 | 0.5 | 0.4 | 0.3 | 0.5 | 0.4 | Binding of antibody 03-018 to linear peptides of the N protein of SARS-CoV Urbani [1]: 0.1; Binding of antibody 03-018 to looped/cyclic peptides of the N protein of SARS-CoV Urbani [1]: 0.2; Binding of serum 62 to linear peptides of protein N of SARS-CoV Urbani [4]: 0.7; Binding of serum London to linear peptides of protein N of SARS-CoV Urbani [4]: 0.5; Binding of serum SARS-green to linear peptides of protein N of SARS-CoV Urbani [4]: 0.4; Binding of serum SARS-yellow to linear peptides of protein N of SARS-CoV Urbani [4]: 0.6 |
| RGNSPARMASGGGET | 0.1 | 0.2 | 0.6 | 0.8 | 0.7 | 0.5 | – | 0.4 | – | 0.3 | – | 0.4 | – | 0.3 | – | 0.4 | 0.4 | 0.8 | 0.1 | 0.1 | Binding of antibody 03-018 to linear peptides of the N protein of SARS-CoV Urbani [1]: 0.1; Binding of antibody 03-018 to looped/cyclic peptides of the N protein of SARS-CoV Urbani [1]: 0.2; Binding of serum 1a to linear peptide (PEPSCAN-ELISA) [4]: 0.3; Binding of serum 1b to linear peptide (PEPSCAN-ELISA) [4]: 0.1; Binding of serum 2 to linear peptide (PEPSCAN-ELISA) [4]: 0.2; Binding of serum 6 to linear peptide (PEPSCAN-ELISA) [4]: 0.2; Binding of serum 37 to linear peptide (PEPSCAN-ELISA) [4]: 0.5; Binding of serum 62 to linear peptide (PEPSCAN-ELISA) [4]: 0.5; Binding of serum London to linear peptide (PEPSCAN-ELISA) [4]: 0.5; Binding of serum SARS-green to linear peptide (PEPSCAN-ELISA) [4]: 0.1; Binding of serum SARS-yellow to linear peptide (PEPSCAN-ELISA) [4]: 0.5 |
